The record followed here is US20210070748A1, “INHIBITORS OF BRUTONS TYROSINE KINASE” (Pharmacyclics LLC, priority 2015, published 2021).

Structures are written as SMILES.

What all share (assay type): biochemical
Experiment [1] has as its target EGFR (Homo sapiens, UniProt P00533). Briefly: Inhibition of a panel of kinases, in vitro HotSpot kinase assay: EGFR. The settings on record: D-compounds panel data; 1 μM ATP. As for the experimental part:
(§1) The degree of inhibition of a panel of kinases is determined using the in vitro HotSpot kinase assay (purified enzymes, ^33P-ATP, an appropriate substrate and 1 μM ATP).

In experiment [2] the target is T1, ITK (Homo sapiens, UniProt Q08881).
T1 sequence (Q08881 1-620): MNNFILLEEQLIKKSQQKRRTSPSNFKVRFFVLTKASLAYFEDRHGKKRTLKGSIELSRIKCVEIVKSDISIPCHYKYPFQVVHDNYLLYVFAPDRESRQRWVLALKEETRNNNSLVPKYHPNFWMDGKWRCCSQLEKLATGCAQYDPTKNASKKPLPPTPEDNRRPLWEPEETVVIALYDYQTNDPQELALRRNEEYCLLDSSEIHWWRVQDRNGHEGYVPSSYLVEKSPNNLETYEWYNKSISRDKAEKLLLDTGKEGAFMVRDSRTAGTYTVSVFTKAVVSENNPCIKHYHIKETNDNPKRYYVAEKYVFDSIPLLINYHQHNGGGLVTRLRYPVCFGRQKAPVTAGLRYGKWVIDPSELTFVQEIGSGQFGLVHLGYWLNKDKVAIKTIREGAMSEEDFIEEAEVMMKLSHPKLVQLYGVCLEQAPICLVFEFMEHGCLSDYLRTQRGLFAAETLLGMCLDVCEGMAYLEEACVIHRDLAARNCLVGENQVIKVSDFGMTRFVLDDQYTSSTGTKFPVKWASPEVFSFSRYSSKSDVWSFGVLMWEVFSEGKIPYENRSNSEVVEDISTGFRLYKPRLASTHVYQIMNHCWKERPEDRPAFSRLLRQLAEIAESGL
In words: Inhibition of a panel of kinases, in vitro HotSpot kinase assay: ITK. Conditions: D-compounds panel data; 1 μM ATP. As for the experimental part: as §1

Experiment [3] deals with T2, TEC (Homo sapiens, UniProt P42680).
T2 sequence (P42680 1-631): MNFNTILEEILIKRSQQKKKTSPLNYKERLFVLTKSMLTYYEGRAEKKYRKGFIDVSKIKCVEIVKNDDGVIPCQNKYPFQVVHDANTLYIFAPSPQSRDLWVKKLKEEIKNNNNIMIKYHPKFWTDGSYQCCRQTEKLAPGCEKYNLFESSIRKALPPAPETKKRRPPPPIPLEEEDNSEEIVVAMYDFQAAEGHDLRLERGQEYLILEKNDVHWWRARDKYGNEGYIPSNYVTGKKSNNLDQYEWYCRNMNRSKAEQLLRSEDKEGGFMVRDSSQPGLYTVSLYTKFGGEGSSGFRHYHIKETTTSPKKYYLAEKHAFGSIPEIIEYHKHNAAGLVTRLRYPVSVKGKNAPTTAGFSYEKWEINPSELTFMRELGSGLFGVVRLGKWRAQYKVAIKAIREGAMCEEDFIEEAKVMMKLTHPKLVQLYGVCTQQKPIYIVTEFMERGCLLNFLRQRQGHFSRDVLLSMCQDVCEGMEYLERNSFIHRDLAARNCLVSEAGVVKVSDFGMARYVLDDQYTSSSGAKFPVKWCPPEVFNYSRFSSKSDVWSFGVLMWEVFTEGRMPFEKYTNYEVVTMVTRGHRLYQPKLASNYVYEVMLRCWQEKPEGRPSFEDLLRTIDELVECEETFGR
In words: Inhibition of a panel of kinases, in vitro HotSpot kinase assay: TEC. The settings on record: D-compounds panel data; 1 μM ATP. The procedure:
as §1

The target in experiment [4] is LCK (Homo sapiens, UniProt P06239). In words: Inhibition of a panel of kinases, in vitro HotSpot kinase assay: LCK. Conditions: D-compounds panel data; 1 μM ATP; read-out: IC50 LCK.
The target in experiment [5] is T3, JAK3 (Homo sapiens, UniProt P52333).
T3 sequence (P52333 1-1124): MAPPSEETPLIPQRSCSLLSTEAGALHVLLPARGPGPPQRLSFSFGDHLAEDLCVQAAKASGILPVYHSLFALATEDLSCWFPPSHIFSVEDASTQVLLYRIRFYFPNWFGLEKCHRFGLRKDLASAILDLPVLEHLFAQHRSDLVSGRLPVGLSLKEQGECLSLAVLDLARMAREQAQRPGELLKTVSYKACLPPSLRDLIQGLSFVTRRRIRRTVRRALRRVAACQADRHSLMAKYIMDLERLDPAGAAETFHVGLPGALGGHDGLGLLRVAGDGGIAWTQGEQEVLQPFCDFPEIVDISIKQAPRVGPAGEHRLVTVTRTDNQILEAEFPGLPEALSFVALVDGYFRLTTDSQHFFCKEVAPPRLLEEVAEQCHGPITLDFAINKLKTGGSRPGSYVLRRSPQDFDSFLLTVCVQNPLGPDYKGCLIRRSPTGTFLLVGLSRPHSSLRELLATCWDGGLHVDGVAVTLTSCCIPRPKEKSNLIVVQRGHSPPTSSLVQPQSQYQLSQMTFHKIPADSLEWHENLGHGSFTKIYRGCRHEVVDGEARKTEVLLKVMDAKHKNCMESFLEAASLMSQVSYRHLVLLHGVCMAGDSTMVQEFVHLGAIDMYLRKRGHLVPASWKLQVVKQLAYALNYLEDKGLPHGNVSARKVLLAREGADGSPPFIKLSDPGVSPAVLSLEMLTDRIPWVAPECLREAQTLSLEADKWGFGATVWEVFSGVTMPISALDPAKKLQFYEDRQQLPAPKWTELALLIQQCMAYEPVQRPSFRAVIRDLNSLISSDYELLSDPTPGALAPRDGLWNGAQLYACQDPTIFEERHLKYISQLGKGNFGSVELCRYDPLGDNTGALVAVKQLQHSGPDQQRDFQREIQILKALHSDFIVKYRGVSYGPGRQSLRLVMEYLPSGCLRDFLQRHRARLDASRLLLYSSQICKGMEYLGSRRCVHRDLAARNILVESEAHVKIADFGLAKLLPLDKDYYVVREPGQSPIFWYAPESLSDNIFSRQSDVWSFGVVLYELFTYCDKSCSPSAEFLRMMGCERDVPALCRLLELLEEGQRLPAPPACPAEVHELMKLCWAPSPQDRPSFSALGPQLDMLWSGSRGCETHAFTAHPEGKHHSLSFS
In words: Inhibition of a panel of kinases, in vitro HotSpot kinase assay: JAK3. Conditions: D-compounds panel data; 1 μM ATP; read-out: IC50 JAK3.

For experiment [6], the target named is SRC (Homo sapiens, UniProt P12931). Briefly: Inhibition of a panel of kinases, in vitro HotSpot kinase assay: SRC. Conditions: D-compounds panel data; 1 μM ATP. As for the experimental part: as §1
Sequence of SRC (P12931 whole entry): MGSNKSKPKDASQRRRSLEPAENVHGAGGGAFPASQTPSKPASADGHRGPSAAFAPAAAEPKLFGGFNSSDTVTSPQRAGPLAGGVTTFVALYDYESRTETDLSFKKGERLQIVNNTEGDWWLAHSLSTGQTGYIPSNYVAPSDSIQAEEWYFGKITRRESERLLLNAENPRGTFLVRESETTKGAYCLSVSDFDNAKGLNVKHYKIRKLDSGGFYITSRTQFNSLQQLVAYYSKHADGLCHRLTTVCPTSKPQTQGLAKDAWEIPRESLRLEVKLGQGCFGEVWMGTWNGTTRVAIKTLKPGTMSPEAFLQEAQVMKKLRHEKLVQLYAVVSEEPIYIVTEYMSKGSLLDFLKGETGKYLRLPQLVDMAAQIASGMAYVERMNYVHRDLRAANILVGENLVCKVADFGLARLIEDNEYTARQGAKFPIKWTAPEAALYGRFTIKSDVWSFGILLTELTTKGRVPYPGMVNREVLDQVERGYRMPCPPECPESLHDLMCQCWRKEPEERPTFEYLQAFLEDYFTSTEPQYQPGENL

Sequence of EGFR (P00533 25-1210): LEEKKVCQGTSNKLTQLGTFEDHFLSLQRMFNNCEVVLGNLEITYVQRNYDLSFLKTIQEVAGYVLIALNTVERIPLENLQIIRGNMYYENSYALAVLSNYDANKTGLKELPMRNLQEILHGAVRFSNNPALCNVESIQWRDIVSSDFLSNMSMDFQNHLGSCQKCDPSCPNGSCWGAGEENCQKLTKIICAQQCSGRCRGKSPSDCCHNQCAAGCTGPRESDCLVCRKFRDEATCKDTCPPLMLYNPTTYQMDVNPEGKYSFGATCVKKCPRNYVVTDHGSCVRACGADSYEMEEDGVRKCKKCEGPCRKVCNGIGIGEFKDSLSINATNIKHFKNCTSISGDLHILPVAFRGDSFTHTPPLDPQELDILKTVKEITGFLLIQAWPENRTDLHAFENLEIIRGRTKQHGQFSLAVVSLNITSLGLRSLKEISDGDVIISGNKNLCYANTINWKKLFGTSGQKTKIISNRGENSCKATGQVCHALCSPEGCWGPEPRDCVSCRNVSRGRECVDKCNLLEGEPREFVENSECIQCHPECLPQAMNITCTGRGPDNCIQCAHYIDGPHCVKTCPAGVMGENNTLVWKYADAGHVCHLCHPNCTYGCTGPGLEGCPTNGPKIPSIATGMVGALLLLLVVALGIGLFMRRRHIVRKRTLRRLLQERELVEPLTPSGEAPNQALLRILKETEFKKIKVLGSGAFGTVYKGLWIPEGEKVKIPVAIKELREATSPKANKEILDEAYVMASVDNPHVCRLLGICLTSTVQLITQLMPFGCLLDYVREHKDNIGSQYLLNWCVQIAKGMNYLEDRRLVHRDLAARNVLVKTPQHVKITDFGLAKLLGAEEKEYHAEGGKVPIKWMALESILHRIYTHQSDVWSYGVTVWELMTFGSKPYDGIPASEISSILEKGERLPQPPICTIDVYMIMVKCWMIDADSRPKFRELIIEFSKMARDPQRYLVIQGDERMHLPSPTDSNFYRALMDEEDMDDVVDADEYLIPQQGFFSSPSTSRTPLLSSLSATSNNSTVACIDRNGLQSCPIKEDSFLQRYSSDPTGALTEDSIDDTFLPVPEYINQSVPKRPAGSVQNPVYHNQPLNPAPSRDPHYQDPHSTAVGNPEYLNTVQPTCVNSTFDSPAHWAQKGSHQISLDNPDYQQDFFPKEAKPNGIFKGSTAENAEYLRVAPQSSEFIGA
Sequence of LCK (P06239 whole entry): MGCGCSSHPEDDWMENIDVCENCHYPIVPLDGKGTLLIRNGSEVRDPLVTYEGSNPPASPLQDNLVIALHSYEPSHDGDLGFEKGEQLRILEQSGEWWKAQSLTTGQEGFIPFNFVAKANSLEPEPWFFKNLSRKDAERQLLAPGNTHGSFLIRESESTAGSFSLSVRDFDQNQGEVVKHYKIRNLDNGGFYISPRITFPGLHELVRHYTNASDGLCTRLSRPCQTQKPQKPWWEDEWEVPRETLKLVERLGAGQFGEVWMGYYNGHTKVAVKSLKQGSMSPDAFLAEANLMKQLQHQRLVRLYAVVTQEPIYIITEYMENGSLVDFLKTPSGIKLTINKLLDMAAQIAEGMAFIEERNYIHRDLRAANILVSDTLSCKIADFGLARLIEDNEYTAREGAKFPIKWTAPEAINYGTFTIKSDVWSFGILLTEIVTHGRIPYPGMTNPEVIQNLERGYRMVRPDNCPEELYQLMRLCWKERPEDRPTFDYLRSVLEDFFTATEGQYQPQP

A word on the IC50: it is the concentration at which inhibition is half-maximal. As for `CC(=O)N1CCN(c2ccc(Nc3nc(N4CCC[C@@H](NC(=O)c5ccc(C6CC6)cc5)[C@H]4C)cnc3C(N)=O)cc2)CC1` [Example D-295, 3-{[4-(4-acetylpiperazin-1-yl)phenyl]amino}-5-[(2R,3R)-3-(4-cyclopropylbenzamido)-2-methylpiperidin-1-yl]pyrazine-2-carboxamide], the IC50 is 100 to 1000 nM in experiment [1]; 100 to 1000 nM in experiment [2]; not above 10 nM in experiment [3]; 10 to 100 nM in experiment [4]; 100 to 1000 nM in experiment [5]; 10 to 100 nM in experiment [6].

Turning to `C[C@@H]1[C@H](NC(=O)c2ccc(C3CC3)cc2)CCCN1c1cnc(C(N)=O)c(Nc2cnn(CCO)c2)n1` [Example D-281, 5-[(2R,3R)-3-(4-cyclopropylbenzamido)-2-methylpiperidin-1-yl]-3-{[I-(2-hydroxyethyl)-1H-pyrazol-4-yl]amino}pyrazine-2-carboxamide], the IC50 lay within 1000 to 10000 nM in experiment [1]; 100 to 1000 nM in experiment [2]; 10 to 100 nM in experiment [3]; 100 to 1000 nM in experiment [4]; 1000 to 10000 nM in experiment [5]; 100 to 1000 nM in experiment [6].

`C[C@@H]1[C@H](NC(=O)c2ccc(C3CC3)cc2F)CCCN1c1cnc(C(N)=O)c(Nc2ccc(N3CCNCC3)c(F)c2)n1` [Example D-313, 5-[(2R,3R)-3-(4-cyclopropyl-2-fluorobenzamido)-2-methylpiperidin-1-yl]-3-{[3-fluoro-4-(piperazin-1-yl)phenyl]amino}pyrazine-2-carboxamide]: the IC50 was 100 to 1000 nM in experiment [1]; 10 to 100 nM in experiment [2]; not above 10 nM in experiment [3]; 10 to 100 nM in experiment [4]; 100 to 1000 nM in experiment [5]; 10 to 100 nM in experiment [6].

In the case of `C[C@@H]1[C@H](NC(=O)c2ccc(C3CC3)cc2)CCCN1c1cnc(C(N)=O)c(Nc2ccc3c(c2)OC(F)(F)O3)n1` [Example D-315, 5-[(2R,3R)-3-(4-cyclopropylbenzamido)-2-methylpiperidin-1-yl]-3-[(2,2-difluoro-2H-1,3-benzodioxol-5-yl)amino]pyrazine-2-carboxamide], the IC50 is more than 10000 nM in experiment [1]; more than 10000 nM in experiment [2]; 1000 to 10000 nM in experiment [3]; more than 10000 nM in experiment [4]; more than 10000 nM in experiment [5]; more than 10000 nM in experiment [6].

In the case of `C[C@@H]1[C@H](NC(=O)c2cc3c(n2C)CC(C)(C)C3)CCCN1c1cnc(C(N)=O)c(Nc2cnn(C)c2)n1` [Example D-19, 3-[(1-methyl-1H-pyrazol-4-yl)amino]-5-[(2R,3R)-2-methyl-3-{1,5,5-trimethyl-1H,4H,5H,6H-cyclopenta[b]pyrrole-2-amido}piperidin-1-yl]pyrazine-2-carboxamide], the IC50 was 100 to 1000 nM in experiment [1]; 100 to 1000 nM in experiment [2]; 10 to 100 nM in experiment [3]; 100 to 1000 nM in experiment [4]; 100 to 1000 nM in experiment [5]; 100 to 1000 nM in experiment [6].

For `C[C@@H]1[C@H](NC(=O)c2ccc(C3CC3)nc2)CCCN1c1cnc(C(N)=O)c(Nc2ccc(OC3CCOCC3)cc2)n1` [Example D-309, 5-[(2R,3R)-3-(6-cyclopropylpyridine-3-amido)-2-methylpiperidin-1-yl]-3-{[4-(oxan-4-yloxy)phenyl]amino}pyrazine-2-carboxamide], the IC50 in experiment [1] is 100 to 1000 nM; in experiment [2], 100 to 1000 nM; in experiment [3], not above 10 nM; in experiment [4] it was 100 to 1000 nM; in experiment [5] it was 100 to 1000 nM; in experiment [6], 10 to 100 nM.

In the case of `COCCN(C)c1ccc(C(=O)N[C@@H]2CCCN(c3cnc(C(N)=O)c(Nc4cnn(C)c4)n3)[C@@H]2C)cc1` [Example D-248, 5-[(2R,3R)-3-{4-[(2-methoxyethyl)(methyl)amino]benzamido}-2-methylpiperidin-1-yl]-3-[(1-methyl-1H-pyrazol-4-yl)amino]pyrazine-2-carboxamide], the IC50 in experiment [1] is 100 to 1000 nM; in experiment [2], 100 to 1000 nM; in experiment [3] it was not above 10 nM; in experiment [4] it was 10 to 100 nM; in experiment [5] it was 100 to 1000 nM; in experiment [6] it was 10 to 100 nM.

With `C[C@@H]1[C@H](NC(=O)c2ccc(C3CC3)cc2)CCCN1c1cnc(C(N)=O)c(Nc2cnn(CC#N)c2)n1` [Example D-287, 3-{[1-(cyanomethyl)-1H-pyrazol-4-yl]amino}-5-[(2R,3R)-3-(4-cyclopropylbenzamido)-2-methylpiperidin-1-yl]pyrazine-2-carboxamide], the IC50 in experiment [1] is more than 10000 nM; in experiment [2] it was 100 to 1000 nM; in experiment [3], not above 10 nM; in experiment [4], 100 to 1000 nM; in experiment [5] it was 1000 to 10000 nM; in experiment [6] it was 100 to 1000 nM.

As to `C[C@@H]1[C@H](NC(=O)c2ccc(C3CC3)cc2)CCCN1c1cnc(C(N)=O)c(Nc2cc(C3CCN(C)CC3)ns2)n1` [Example D-312, 5-[(2R,3R)-3-(4-cyclopropylbenzamido)-2-methylpiperidin-1-yl]-3-{[3-(1-methylpiperidin-4-yl)-1,2-thiazol-5-yl]amino}pyrazine-2-carboxamide], the IC50 was 100 to 1000 nM in experiment [1]; 10 to 100 nM in experiment [2]; not above 10 nM in experiment [3]; less than 10 nM in experiment [4]; 100 to 1000 nM in experiment [5]; not above 10 nM in experiment [6].

With `C[C@@H]1[C@H](NC(=O)c2ccc(C3CC3)cc2)CCCN1c1nnc(C(N)=O)c(Nc2cnn(C)c2)n1` [Example D-277, 3-[(2R,3R)-3-(4-cyclopropylbenzamido)-2-methylpiperidin-1-yl]-5-[(1-methyl-1H-pyrazol-4-yl)amino]-1,2,4-triazine-6-carboxamide], the IC50 is 1000 to 10000 nM in experiment [1]; 100 to 1000 nM in experiment [2]; not above 10 nM in experiment [3]; 10 to 100 nM in experiment [4]; 100 to 1000 nM in experiment [5]; 10 to 100 nM in experiment [6].
